Laboratory results reported in the supplement of paper PMC10883282.
± gives the standard deviation of the averaged measurements.

Tested on: SW1353
Test: relative viability vs DMSO control (72 h) (fraction); higher = more viable cells
Procedure, shortened: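 Percent growth from ATPLite readings, averaged over up to triplicate wells, was used as relative viability. Sarcoma cell lines were seeded into 384-well plates for 80–90% confluence, dosed after 24 h, and kept 72 h at 37 °C, 5% CO2. Data were rescaled to a range where 1 is full and 0 is none.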

SMILES	relative viability (0.00017 µM)	relative viability (0.00051 µM)	relative viability (0.00152 µM)	relative viability (0.00457 µM)	relative viability (0.01372 µM)	relative viability (0.04115 µM)	relative viability (0.1235 µM)	relative viability (0.3704 µM)	relative viability (1.111 µM)	relative viability (3.333 µM)	relative viability (10 µM)	relative viability (2 pM)	relative viability (5 pM)	relative viability (15 pM)	relative viability (50 pM)	relative viability (0.00014 µM)	relative viability (0.00041 µM)	relative viability (0.0012 µM)	relative viability (0.0037 µM)	relative viability (0.011 µM)	relative viability (200 fM)	relative viability (600 fM)
COCc1c(-c2cc3cc(C)cc(OC)c3s2)c2c(N)ncnn2c1CN1CCNC(=O)C1 [Rogaratinib]	1.075 ± 0.01	1.03 ± 0.021	0.977 ± 0.025	1.01 ± 0.036	0.964 ± 0.032	0.901 ± 0.028	0.879 ± 0.0097	0.819 ± 0.031	0.795 ± 0.014	0.757 ± 0.013	0.691 ± 0.021											
N#CC[C@H](C1CCCC1)n1cc(-c2ncnc3[nH]ccc23)cn1 [Ruxolitinib]	1.049 ± 0.0061	1.1 ± 0.052	1.1 ± 0.027	1.09 ± 0.029	1.09 ± 0.029	1.09 ± 0.014	1.05 ± 0.021	1.04 ± 0.011	1.03 ± 0.038	1.02 ± 0.033	0.807 ± 0.012											
Cc1cc(C)c(/C=C2\C(=O)Nc3ccccc32)[nH]1 [Semaxanib]	0.919 ± 0.019	0.8637 ± 0.004	0.898 ± 0.032	0.897 ± 0.043	0.865 ± 0.022	0.895 ± 0.052	0.892 ± 0.016	0.886 ± 0.017	0.872 ± 0.04	0.818 ± 0.022	0.788 ± 0.032											
Cc1nc(-c2cn3c(n2)-c2ccc(-c4cnn(C(C)(C)C(N)=O)c4)cc2OCC3)n(C(C)C)n1 [Taselisib]	0.925 ± 0.035	0.933 ± 0.02	0.953 ± 0.025	0.971 ± 0.013	0.884 ± 0.043	0.856 ± 0.031	0.785 ± 0.03	0.762 ± 0.014	0.69 ± 0.021	0.599 ± 0.021	0.469 ± 0.0077											
CN1CCC(COc2cnc(-c3cccc(Cn4nc(-c5cccc(C#N)c5)ccc4=O)c3)nc2)CC1 [Tepotinib]	1.025 ± 0.0083	1.02 ± 0.015	1.01 ± 0.021	1.01 ± 0.018	0.984 ± 0.028	0.988 ± 0.035	0.951 ± 0.029	0.976 ± 0.039	0.93 ± 0.046	0.977 ± 0.027	0.573 ± 0.17											
COc1cc2nccc(Oc3ccc(NC(=O)Nc4cc(C)on4)c(Cl)c3)c2cc1OC [Tivozanib]	0.97 ± 0.029	0.983 ± 0.036	0.965 ± 0.044	0.961 ± 0.064	1.01 ± 0.033	0.988 ± 0.028	1.01 ± 0.021	1.04 ± 0.021	1.05 ± 0.054	0.8973 ± 0.0033	0.582 ± 0.0097											
C[C@@H]1CCN(C(=O)CC#N)C[C@@H]1N(C)c1ncnc2[nH]ccc12 [Tofacitinib]	1.08 ± 0.025	1.07 ± 0.06	1.03 ± 0.036	1.04 ± 0.027	0.986 ± 0.039	1.02 ± 0.031	0.989 ± 0.033	1.01 ± 0.034	0.998 ± 0.054	1 ± 0.022	0.884 ± 0.035											
COc1cc2c(cc1O)CCN[C@]21CS[C@@H]2c3c(OC(C)=O)c(C)c4c(c3[C@H](COC1=O)N1[C@@H]2[C@H]2c3c(cc(C)c(OC)c3O)C[C@@H]([C@@H]1O)N2C)OCO4 [Trabectedin]												1.09 ± 0.017	1.09 ± 0.027	1.06 ± 0.03	1.04 ± 0.013	1.04 ± 0.03	0.92 ± 0.018	0.0356 ± 0.003	0.229 ± 0.0077	0.186 ± 0.015	1.1 ± 0.027	1.1 ± 0.012
CC(=O)Nc1cccc(-n2c(=O)n(C3CC3)c(=O)c3c(Nc4ccc(I)cc4F)n(C)c(=O)c(C)c32)c1 [Trametinib]	1.02 ± 0.025	1.01 ± 0.034	0.942 ± 0.024	0.862 ± 0.014	0.745 ± 0.014	0.69 ± 0.031	0.642 ± 0.029	0.613 ± 0.012	0.571 ± 0.025	0.5524 ± 0.0038	0.509 ± 0.019											
Cc1cc(Nc2ncnc3ccc(NC4=NC(C)(C)CO4)cc23)ccc1Oc1ccn2ncnc2c1 [Tucatinib]	1.06 ± 0.053	1.04 ± 0.03	1.06 ± 0.03	1.04 ± 0.043	0.989 ± 0.045	0.931 ± 0.026	0.936 ± 0.031	0.895 ± 0.026	0.855 ± 0.053	0.897 ± 0.064	0.936 ± 0.0098											
